Reference: ChEMBL document CHEMBL4507319 (2021)

Legend:
Conditions in all cases: Compound concentration 1000.0 nM
[1] = target: Phosphatidylinositol 5-phosphate 4-kinase type-2 beta (Homo sapiens) (UniProt P78356)
[2] = target: T1, Serine/threonine-protein kinase ULK2 (Homo sapiens) (UniProt Q8IYT8)
T1 sequence (whole entry): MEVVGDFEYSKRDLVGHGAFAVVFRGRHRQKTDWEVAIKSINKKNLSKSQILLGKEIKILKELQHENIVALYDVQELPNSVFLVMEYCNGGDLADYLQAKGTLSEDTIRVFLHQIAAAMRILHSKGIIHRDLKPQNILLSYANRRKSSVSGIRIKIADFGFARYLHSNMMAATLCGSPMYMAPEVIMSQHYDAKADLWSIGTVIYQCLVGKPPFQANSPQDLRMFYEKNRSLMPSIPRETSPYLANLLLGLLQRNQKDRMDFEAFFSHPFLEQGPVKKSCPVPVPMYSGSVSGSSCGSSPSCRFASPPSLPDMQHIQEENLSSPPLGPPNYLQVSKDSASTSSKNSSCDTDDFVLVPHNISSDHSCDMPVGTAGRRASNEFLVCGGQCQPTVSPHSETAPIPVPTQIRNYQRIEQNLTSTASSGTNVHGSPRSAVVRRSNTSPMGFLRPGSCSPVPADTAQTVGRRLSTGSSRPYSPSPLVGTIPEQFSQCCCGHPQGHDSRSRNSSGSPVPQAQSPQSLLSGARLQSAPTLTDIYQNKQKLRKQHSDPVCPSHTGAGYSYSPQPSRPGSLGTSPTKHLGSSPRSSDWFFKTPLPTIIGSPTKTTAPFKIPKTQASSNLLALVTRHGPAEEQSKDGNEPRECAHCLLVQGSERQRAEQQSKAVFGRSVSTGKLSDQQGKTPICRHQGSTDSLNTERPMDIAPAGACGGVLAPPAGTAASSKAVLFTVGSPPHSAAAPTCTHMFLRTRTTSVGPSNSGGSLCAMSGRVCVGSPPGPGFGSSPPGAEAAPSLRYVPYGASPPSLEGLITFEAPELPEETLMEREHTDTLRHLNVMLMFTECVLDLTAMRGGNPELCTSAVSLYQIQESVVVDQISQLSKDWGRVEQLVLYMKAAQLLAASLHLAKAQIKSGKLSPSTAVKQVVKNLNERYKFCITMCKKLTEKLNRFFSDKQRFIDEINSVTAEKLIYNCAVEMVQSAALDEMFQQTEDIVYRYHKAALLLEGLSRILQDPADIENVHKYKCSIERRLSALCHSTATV

[3] = target: Phosphatidylinositol 4-phosphate 5-kinase type-1 alpha (Homo sapiens) (UniProt Q99755)
[4] = target: 5'-AMP-activated protein kinase catalytic subunit alpha-2 (Homo sapiens, UniProt P54646)
[5] = target: Microtubule-associated serine/threonine-protein kinase 1 (Homo sapiens) (UniProt Q9Y2H9)
[6] = target: T2, cGMP-dependent protein kinase 2 (Homo sapiens) (UniProt Q13237)
T2 sequence (whole entry): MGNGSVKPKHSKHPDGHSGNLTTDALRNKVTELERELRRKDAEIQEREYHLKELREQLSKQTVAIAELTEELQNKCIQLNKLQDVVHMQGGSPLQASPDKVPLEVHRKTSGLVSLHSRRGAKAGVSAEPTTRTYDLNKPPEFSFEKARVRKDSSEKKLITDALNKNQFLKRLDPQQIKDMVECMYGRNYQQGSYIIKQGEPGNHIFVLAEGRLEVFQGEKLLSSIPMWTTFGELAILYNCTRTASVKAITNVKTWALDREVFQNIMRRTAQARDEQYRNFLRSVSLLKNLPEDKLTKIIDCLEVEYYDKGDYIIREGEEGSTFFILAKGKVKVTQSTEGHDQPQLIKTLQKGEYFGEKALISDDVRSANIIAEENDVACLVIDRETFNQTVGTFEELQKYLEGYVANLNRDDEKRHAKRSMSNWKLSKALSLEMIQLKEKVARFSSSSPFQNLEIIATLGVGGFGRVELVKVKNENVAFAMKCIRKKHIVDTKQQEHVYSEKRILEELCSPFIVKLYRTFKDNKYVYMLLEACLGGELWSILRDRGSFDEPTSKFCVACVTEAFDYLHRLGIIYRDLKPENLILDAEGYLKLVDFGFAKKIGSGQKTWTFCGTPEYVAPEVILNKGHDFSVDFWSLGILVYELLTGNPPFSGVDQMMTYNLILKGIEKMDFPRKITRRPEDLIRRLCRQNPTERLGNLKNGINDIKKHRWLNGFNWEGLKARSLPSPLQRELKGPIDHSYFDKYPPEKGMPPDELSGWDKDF

[7] = target: T3, Serine/threonine-protein kinase BRSK1 (Homo sapiens) (UniProt Q8TDC3)
T3 sequence (whole entry): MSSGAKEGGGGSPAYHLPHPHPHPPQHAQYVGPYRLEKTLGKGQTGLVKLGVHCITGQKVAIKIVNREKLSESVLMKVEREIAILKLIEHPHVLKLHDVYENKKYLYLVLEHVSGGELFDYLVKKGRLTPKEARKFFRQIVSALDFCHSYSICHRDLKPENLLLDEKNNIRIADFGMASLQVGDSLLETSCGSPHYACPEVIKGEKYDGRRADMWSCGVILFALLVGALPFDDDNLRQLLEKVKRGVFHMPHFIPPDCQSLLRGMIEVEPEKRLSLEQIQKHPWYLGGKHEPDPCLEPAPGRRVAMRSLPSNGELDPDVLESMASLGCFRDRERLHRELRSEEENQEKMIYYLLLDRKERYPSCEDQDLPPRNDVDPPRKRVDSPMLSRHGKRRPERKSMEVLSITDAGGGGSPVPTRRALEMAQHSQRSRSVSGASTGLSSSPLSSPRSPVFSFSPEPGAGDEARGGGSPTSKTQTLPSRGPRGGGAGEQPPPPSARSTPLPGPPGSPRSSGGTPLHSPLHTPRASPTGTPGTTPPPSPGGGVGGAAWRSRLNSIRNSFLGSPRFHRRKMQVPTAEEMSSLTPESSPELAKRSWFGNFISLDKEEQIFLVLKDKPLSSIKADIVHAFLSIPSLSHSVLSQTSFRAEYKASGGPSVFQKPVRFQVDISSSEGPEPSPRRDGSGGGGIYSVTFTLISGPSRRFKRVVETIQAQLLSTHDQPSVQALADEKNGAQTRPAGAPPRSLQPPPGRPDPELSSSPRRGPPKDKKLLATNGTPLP

[8] = target: Ephrin type-A receptor 6 (Homo sapiens) (UniProt Q9UF33)
[9] = target: Insulin receptor-related protein (Homo sapiens) (UniProt P14616)
Chain of Insulin receptor-related protein (Homo sapiens) (P14616 27-742 limits assumed): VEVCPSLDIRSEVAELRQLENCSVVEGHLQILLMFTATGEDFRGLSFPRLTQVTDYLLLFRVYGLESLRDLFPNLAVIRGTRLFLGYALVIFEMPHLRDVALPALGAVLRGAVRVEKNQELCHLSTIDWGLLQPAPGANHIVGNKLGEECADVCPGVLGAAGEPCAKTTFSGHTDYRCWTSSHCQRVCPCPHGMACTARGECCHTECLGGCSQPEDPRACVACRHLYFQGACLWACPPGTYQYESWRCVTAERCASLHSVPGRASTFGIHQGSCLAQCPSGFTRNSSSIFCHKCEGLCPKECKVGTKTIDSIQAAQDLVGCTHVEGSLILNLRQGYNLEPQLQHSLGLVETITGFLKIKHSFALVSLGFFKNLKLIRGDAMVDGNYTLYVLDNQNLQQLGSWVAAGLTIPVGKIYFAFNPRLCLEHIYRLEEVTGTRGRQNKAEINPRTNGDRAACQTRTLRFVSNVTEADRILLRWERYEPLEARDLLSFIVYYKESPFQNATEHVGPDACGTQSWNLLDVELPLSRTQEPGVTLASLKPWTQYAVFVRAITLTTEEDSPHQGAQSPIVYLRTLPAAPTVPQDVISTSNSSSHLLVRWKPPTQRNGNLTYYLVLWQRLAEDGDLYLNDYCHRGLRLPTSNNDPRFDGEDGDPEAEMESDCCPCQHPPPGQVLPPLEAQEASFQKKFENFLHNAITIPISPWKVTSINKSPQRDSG
Chain of Insulin receptor-related protein (Homo sapiens) (P14616 747-1297 limits assumed): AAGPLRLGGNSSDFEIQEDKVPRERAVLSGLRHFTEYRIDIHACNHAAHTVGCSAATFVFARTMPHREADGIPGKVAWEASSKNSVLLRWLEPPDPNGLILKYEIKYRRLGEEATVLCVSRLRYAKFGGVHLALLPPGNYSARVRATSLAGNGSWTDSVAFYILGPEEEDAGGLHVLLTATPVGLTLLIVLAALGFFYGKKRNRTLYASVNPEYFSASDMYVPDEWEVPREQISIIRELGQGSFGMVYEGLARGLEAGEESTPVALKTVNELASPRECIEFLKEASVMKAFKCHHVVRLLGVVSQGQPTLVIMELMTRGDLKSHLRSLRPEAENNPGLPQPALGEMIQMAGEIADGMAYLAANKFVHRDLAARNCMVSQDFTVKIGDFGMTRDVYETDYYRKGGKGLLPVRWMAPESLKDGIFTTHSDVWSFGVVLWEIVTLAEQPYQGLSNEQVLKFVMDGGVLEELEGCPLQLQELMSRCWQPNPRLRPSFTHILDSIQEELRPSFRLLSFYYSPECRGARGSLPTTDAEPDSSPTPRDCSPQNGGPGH

Chain of 5'-AMP-activated protein kinase catalytic subunit alpha-2 (P54646 whole entry, looked up): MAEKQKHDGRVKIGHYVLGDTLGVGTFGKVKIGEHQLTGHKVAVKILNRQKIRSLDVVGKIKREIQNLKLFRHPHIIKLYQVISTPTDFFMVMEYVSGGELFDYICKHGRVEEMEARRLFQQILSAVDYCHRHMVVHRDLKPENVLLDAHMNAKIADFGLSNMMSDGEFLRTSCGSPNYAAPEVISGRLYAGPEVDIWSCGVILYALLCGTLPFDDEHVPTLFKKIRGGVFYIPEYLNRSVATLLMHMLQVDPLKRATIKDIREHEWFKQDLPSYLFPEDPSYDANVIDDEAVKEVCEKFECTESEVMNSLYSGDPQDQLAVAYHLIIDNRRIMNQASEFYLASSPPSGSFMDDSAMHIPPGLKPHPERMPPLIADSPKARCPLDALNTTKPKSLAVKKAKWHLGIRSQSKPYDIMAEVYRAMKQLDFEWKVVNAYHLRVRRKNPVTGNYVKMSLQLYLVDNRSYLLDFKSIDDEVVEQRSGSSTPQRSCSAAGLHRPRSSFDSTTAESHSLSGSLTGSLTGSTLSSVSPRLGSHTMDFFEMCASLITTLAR
Chain of Phosphatidylinositol 4-phosphate 5-kinase type-1 alpha (Homo sapiens) (Q99755 whole entry): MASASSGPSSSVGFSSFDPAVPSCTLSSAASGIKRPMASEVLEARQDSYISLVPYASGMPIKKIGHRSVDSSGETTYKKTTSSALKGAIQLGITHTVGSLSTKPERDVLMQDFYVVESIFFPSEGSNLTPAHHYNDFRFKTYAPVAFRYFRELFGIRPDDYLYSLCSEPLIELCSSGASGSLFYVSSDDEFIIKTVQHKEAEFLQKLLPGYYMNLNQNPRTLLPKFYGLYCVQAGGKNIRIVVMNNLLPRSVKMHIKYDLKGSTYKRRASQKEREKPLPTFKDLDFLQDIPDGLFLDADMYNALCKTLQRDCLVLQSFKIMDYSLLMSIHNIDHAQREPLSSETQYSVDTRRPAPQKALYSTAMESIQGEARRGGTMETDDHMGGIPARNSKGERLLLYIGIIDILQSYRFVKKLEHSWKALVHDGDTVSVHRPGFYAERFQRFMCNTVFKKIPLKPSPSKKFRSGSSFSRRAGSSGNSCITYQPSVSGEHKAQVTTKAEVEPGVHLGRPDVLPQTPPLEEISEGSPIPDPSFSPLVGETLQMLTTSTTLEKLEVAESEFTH
Chain of Ephrin type-A receptor 6 (Homo sapiens) (Q9UF33 whole entry): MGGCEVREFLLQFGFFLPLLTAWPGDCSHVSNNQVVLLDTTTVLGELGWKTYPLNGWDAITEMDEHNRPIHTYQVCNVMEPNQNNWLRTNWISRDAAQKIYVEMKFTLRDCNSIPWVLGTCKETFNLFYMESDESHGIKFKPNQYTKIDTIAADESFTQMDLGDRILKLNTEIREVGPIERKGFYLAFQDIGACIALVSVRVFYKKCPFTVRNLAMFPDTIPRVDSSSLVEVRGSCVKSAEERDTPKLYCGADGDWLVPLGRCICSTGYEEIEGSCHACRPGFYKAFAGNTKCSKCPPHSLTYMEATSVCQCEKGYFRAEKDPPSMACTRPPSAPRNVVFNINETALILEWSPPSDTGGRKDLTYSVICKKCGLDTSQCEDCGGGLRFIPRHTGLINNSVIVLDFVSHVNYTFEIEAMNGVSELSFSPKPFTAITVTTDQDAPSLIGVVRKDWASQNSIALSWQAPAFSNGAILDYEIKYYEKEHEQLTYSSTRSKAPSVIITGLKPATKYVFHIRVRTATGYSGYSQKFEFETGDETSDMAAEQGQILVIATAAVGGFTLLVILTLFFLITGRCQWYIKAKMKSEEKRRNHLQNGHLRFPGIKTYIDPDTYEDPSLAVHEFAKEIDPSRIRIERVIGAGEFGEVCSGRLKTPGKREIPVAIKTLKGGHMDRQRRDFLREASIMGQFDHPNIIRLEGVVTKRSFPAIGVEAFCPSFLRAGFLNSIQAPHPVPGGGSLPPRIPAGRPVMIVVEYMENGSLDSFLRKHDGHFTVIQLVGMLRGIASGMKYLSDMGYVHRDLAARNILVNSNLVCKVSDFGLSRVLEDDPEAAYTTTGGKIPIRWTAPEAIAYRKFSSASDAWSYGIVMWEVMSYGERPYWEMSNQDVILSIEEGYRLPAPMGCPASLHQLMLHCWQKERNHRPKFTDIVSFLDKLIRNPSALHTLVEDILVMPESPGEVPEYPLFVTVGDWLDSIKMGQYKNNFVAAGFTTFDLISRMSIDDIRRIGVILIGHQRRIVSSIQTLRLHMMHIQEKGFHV
Chain of Phosphatidylinositol 5-phosphate 4-kinase type-2 beta (Homo sapiens) (P78356 whole entry): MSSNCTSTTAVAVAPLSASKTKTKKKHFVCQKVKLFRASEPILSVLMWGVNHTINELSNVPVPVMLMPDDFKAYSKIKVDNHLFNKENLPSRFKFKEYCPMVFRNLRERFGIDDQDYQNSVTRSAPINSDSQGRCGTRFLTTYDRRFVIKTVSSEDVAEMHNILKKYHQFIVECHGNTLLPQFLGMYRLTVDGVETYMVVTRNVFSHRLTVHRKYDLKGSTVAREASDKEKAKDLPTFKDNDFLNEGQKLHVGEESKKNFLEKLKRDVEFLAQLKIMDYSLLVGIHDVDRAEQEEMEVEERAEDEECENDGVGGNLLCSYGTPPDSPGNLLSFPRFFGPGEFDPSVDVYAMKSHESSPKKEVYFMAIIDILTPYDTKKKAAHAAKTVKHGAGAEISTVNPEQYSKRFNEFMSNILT

Compound | residual activity [1] [%] | residual activity [2] [%] | residual activity [3] [%] | residual activity [4] [%] | residual activity [5] [%] | residual activity [6] [%] | residual activity [7] [%] | residual activity [8] [%] | residual activity [9] [%]
CC1=C(C#N)C(c2ccc3c(c2)c(NC(=O)c2ccccc2C)nn3C)C(C#N)=C(C)N1 [BAY-974] | 83 | 72 | 100 | 99 | 92 | 72 | 100 | 89 | 100
CCc1ccccc1C(=O)Nc1n[nH]c2c(C)c(F)c(C3C(C#N)=C(C)N(C)C(C)=C3C#N)cc12 [BAY-3827] | 91 | 100 | 100 | 0 | 100 | 100 | 55 | 57 | 99
